Marks after values point to notes of the source that are not given here. Each block holds one molecule with its values, some of them ahead of it.
Columns and labels:
diet-induced obese mice [1] = experiment: microPET/CT glucose and palmitate uptake; assay type: in vivo, c57/BL6 mice; details: 6 weeks
Procedure: at the end of the treatment period (6 weeks of treatment) subgroups of each treatment diet group (5 animals/group, 35 animals total) were used to measure whole body glucose and palmitate uptake via PET/CT Imaging. To visualize these compounds using microPET imaging, the glucose or palmitate was labeled with fluorine-18 (108 mins half life) or carbon-11 (20 mins half life), respectively. Each mouse was fasted for 4 hours, then anesthetized using 1-3% isoflurane delivered by nose cone or in a mouse-sized induction chamber purpose-built for small animal imaging protocols. While under anesthesia the mice were injected iv with <2 mCi of each tracer, then be left for a period of time (minutes to up˜1 hour) to allow the uptake of the tracer. During the scan, mice were kept warm using a thermostatically controlled heated bed and were treated with ophthalmic ointment prior to scanning Following the live scan the mice were returned to their cage and revived. Mice were monitored constantly during this time. Following live data acquisition the mice were sacrificed by isoflurane overdose and organs harvested for further experiments.

diet-induced obese mice [2] = experiment: Diet-induced obese mice on resveratrol/HMB/leucine diets: body weight, weight gain, adiposity; assay type: in vivo, c57/BL6 mice
Source text: Six week old male c57/BL6 mice were fed a high-fat diet with fat increased to 45% of energy (Research Diets D12451) for 6 weeks to induce obesity. At the end of this obesity induction period, animals were randomly divided into the following seven different diet treatment groups with 10 animals per group (overall 70 animals) and maintained on these diets for 6 weeks:
Group 1 (labeled “control group”): high-fat diet only (same as in obesity induction period (Research Diets D12451)).
This diet was modified for groups 2 to 7 in the following way:
Group 2 (labeled “low dose resveratrol”): high-fat diet mixed with 12.5 mg resveratrol/kg diet.
Group 3 (labeled “high dose resveratrol”): high-fat diet mixed with 225 mg resveratrol/kg diet.
Group 4 (labeled “low dose HMB”): high-fat diet mixed with 2 g of the calcium salt of hydroxymethylbutyrate, a naturally occurring metabolite of leucine (CaHMB).
Group 5 (labeled “low dose resveratrol plus low dose CaHMB”): high fat-diet mixed with 12.5 mg of resveratrol/kg diet and 2 g CaHMB/kg diet.
Group 6 (labeled “low dose resveratrol plus high dose HMB”): high fat-diet mixed with 12.5 mg of resveratrol/kg diet and 10 g CaHMB/kg diet.
The animals were housed in polypropylene cages at a room temperature of 22±2° C. and regime of 12 h light/dark cycle. The animals had free access to water and their experimental food throughout the experiment. […]

[3] = Circulating level after dosing; assay type: in vivo
diet-induced obese mice [4] = experiment: Oxygen consumption/substrate utilization in metabolic chambers (CLAMS); assay type: in vivo, c57/BL6 mice
Procedure: at the end of the obesity induction period (day 0 of treatment group) and at 2 weeks and 6 weeks of treatment, oxygen consumption and substrate utilization was measured via metabolic chambers using the Comprehensive Lab Animal Monitoring Systems (CLAMS, Columbus Instruments, Columbus, Ohio) in subgroups of each treatment group. Each animal was placed in individual cages without bedding that allow automated, non-invasive data collection. Each cage is an indirect open circuit calorimeter that provides measurement of oxygen consumption, carbon dioxide production, and concurrent measurement of food intake. All mice were acclimatized to the chambers for 24 hours prior to the experiment and maintained under the regular 12:12 light:dark cycle with free access to water and food. All experiments were started in the morning and data were collected for 24 hours. Each chamber was passed with 0.61 of air/min and was sampled for 2 min at 32-minute intervals. Exhaust O2 and CO2 content from each chamber was compared with ambient O2 and CO2 content. Food consumption was measured by electronic scales.

SIRT1 = biological target: T1, SIRT1 (Mus musculus, UniProt Q923E4); experiment: Adipose tissue SIRT1 activity (SIRT1 Fluorimetric Drug Discovery Kit); assay type: in vivo, c57/BL6 mice
T1 construct: effects of dietary treatments on adipose tissue Sirt1 activity; from tissue; host or cells: mouse adipose tissue
T1 sequence (Q923E4 1-737): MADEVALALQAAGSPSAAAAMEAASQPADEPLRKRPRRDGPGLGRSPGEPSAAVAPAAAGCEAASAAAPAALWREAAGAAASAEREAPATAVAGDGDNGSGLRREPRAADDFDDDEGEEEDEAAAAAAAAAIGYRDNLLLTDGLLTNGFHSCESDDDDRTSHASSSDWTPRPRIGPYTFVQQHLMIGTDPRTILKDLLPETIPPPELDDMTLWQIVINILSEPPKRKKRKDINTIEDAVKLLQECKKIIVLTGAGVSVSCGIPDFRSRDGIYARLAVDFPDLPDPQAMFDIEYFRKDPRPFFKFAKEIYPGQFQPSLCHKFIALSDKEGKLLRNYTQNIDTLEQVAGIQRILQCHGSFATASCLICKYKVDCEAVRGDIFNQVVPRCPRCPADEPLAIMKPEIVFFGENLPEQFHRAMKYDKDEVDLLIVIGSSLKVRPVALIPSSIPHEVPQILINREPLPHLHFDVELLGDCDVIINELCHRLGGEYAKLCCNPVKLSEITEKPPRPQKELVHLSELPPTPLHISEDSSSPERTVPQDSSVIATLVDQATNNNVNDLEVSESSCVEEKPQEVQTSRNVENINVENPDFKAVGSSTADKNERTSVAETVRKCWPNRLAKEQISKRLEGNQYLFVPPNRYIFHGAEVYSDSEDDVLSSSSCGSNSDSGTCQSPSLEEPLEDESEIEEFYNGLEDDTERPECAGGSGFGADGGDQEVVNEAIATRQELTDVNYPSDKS
Procedure: SIRT1 activity was measured by using the SIRT1 Fluorimetric Drug Discovery Kit (BML-AK555, ENZO Life Sciences International, Inc. PA, USA). In this assay, SIRT1 activity is assessed by the degree of deacetylation of a standardized substrate containing an acetylated lysine side chain. The substrate utilized is a peptide containing amino acids 379-382 of human p53 (Arg-His-Lys-Lys[Ac]), an established target of SIRT1 activity; SIRT1 activity is directly proportional to the degree of deacetylation of Lys-382. Samples were incubated with peptide substrate (25 μM), and NAD^+ (500 μM) in a phosphate-buffered saline solution at 37° C. on a horizontal shaker for 45 minutes. The reaction was stopped with the addition of 2 mM nicotinamide and a developing solution that binds to the deacetylated lysine to form a fluorophore. Following 10 minutes incubation at 37° C., fluorescence was read in a plate-reading fluorometer at an excitation wavelength of 360 nm and an emission wavelength of 450 nm. Resveratrol ([…]) served as a SIRT1 activator and suramin sodium (25 mM) as a SIRT1 inhibitor; wells including each were utilized as positive and negative controls in each set of reactions. A standard curve was constructed using deacetylated substrate (0-10 μM). Data was normalized to cellular protein concentration measured via BCA-assay.

[5] = tested on: inflammatory biomarkers (C-reactive protein, IL-6, MCP-1, adiponectin); experiment: Inflammatory biomarkers in diet-induced obese mice; assay type: in vivo, c57/BL6 mice; details: for Adiponectin / C-reactive protein / IL-6 / MCP-1: 6 weeks
Procedure: (§1) The animals were housed in polypropylene cages at a room temperature of 22±2° C. and regime of 12 h light/dark cycle. The animals had free access to water and their experimental food throughout the experiment. At the of the treatment period (6 weeks) all animals were humanely euthanized, and blood and tissues collected for further experiments.

diet-induced obese mice [6] = experiment: Indices of insulin sensitivity (plasma glucose, insulin, HOMAIR); assay type: in vivo, c57/BL6 mice; details: resveratrol at either dose, HMB, each alone
Procedure: Insulin sensitivity can be measured using a variety of techniques, including HOMAIR. HOMAIR, which is the homeostasis model assessment of insulin resistance can be used as a screening index of changes in insulin sensitivity. HOMAIR can be calculated via standard formula from fasting plasma insulin and glucose as follows: HOMAIR=[Insulin (uU/mL)×glucose (mM)]/22.5.
as §1

[7] = high dose: 225 mg resveratrol/kg diet
[8] = low dose: 12.5 mg resveratrol/kg diet

- circulating level of resveratrol ([3]; oral dosing of about 10 mg, subject about 30 lb): about 200 nM
- circulating level of resveratrol ([3]; oral dosing of about 50 mg, subject about 150 lb): about 200 nM
- circulating level of resveratrol ([3]; oral dosing of about 220 mg, subject about 30 lb): about 0.5 mM
- circulating level of resveratrol ([3]; oral dosing of about 1100 mg, subject about 150 lb): about 0.5 mM
SMILES: Oc1ccc(/C=C/c2cc(O)cc(O)c2)cc1 [Resveratrol, 3,5,4′-Trihydroxy-trans-stilbene]
- Muscle Glucose Uptake (18F-deoxyglucose SUV) (diet-induced obese mice [1]; [7]): 3.87 ± 0.32^a SUV
- Muscle Glucose Uptake (18F-deoxyglucose SUV) (diet-induced obese mice [1]; [8]): 3.63 ± 1.29^a SUV
- effect on body weight, weight gain, or visceral adipose tissue mass (diet-induced obese mice [2]; high dose resveratrol): no significant effect
- effect on body weight, weight gain, visceral adipose tissue mass, fat oxidation, respiratory exchange ratio (RER), or heat production (diet-induced obese mice [2]; low doses, each alone): no significant independent effect
- RER (diet-induced obese mice [4]; high dose of resveratrol): decreased
- heat production and skeletal muscle fat oxidation (diet-induced obese mice [4]; high dose of resveratrol): significantly increased
- Respiratory Exchange Ratio (24 hr RER) (diet-induced obese mice [4]; [7]): 0.825 ± 0.007^b
- Respiratory Exchange Ratio (24 hr RER) (diet-induced obese mice [4]; [8]): 0.847 ± 0.008^a
- adipose tissue Sirt1 activity (SIRT1; high dose resveratrol): non-significant trend towards an increase
- adipose tissue Sirt1 activity (SIRT1; resveratrol or HMB alone): Neither resveratrol nor HMB exerted significant independent effects
- effect on MCP-1 or c-reactive protein ([5]; HMB or low dose of resveratrol alone): neither HMB nor a low dose of resveratrol exerted any effect
- circulating IL-6 ([5]; high dose of resveratrol): significantly reduced
- Adiponectin [5, 7]: 14.8 ± 1.8^b ng/mL
- C-reactive protein [5, 7]: 123.9 ± 35.3^a ng/mL
- IL-6 [5, 7]: 14.1 ± 1.3^b pg/mL
- MCP-1 [5, 7]: 27.3 ± 6.8^b pg/mL
- circulating IL-6 ([5]; low dose of resveratrol alone): no independent effect
- Adiponectin [5, 8]: 12.4 ± 1.1 ng/mL
- C-reactive protein [5, 8]: 134.8 ± 8.5^a ng/mL
- IL-6 [5, 8]: 23.2 ± 2.9^a pg/mL
- MCP-1 [5, 8]: 104.4 ± 16.5^a pg/mL
- effect on plasma insulin or on muscle glucose uptake (diet-induced obese mice [6]): Neither resveratrol at either dose nor HMB exerted any significant effect

- circulating level of leucine ([3]; dosing of about 60 mg leucine, subject weighing about 30 lb): about 0.25 mM
- circulating level of leucine ([3]; dosing of about 225 mg leucine, subject weighing about 30 lb): about 0.5 mM
- circulating level of leucine ([3]; dosing of about 300 mg leucine, subject weighing about 150 lb): about 0.25 mM
- circulating level of leucine ([3]; dosing of about 1,125 mg leucine, subject weighing about 150 lb): about 0.5 mM
SMILES: CC(C)C[C@H](N)C(=O)O [leucine, L-leucine]

From patent US20160000737A1, “TREATMENT OF PETS WITH SIRTUIN ACTIVATORS” (NUSIRT SCIENCES, INC., priority 2013, published 2016)
